According to patent US9718790B2, “Triazine derivative and pharmaceutical composition having an analgesic activity comprising the same” (SHIONOGI & CO., LTD., priority 2010, dated 2017):

molecular target: human P2X3 receptor (Homo sapiens (Human), UniProt P56373); assay: Evaluation of human P2X3 receptor inhibitory activity (Fluo-3 calcium fluorescence, FDSS 3000, ATP stimulation); assay type: cell-based; settings: C6BU-1 cells stably expressing human P2X3 receptor;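 further: stimulus was 50 nM ATP with fluorescence followed for 3 min, and the response per well was peak post-ATP fluorescence divided by the reading at measurement start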
Sequence (P56373 whole entry): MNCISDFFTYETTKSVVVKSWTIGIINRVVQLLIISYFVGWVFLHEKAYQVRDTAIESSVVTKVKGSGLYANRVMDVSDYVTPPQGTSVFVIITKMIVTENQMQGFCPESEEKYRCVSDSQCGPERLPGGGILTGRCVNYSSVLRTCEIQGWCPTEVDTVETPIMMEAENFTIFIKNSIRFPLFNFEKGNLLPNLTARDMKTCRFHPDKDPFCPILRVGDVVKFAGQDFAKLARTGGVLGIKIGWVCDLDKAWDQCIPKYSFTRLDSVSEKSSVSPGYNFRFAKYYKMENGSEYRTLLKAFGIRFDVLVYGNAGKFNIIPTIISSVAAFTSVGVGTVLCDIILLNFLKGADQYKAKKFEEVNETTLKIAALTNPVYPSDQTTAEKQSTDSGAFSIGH

`COC(=O)[C@@H](C)Cn1c(=O)[nH]/c(=N\c2ccc3nc(C)ccc3c2)n(Cc2ccc(C)cc2)c1=O` [Compound I-1275] and `CCOc1ccc(/N=c2\[nH]c(=O)n(C[C@H](C)C(=O)OC)c(=O)n2Cc2ccc(C)cc2)cc1Cl` [Compound I-0678] are within 1.5-fold of each other in IC50: 6 nM for the first, 8 nM for the second.

Going from `Cc1cc(/N=c2\[nH]c(=O)n(CCCC(=O)NCCO)c(=O)n2Cc2ccc(Cl)cc2)ccc1OC(C)C` [Compound I-0788] to `Cc1cc(/N=c2\[nH]c(=O)n(C[C@H](O)CO)c(=O)n2Cc2ccc(Cl)cc2)ccc1OC(C)C` [Compound I-0722], the IC50 falls from 32 nM to 14 nM (2.3-fold).

First: O=c1[nH]/c(=N\c2ccc3nc(C4CC4)sc3c2)n(Cc2ccc(Cl)cc2)c(=O)n1CCO [Compound I-2026]
Second: O=c1[nH]/c(=N\c2ccc3nc(C(F)(F)F)sc3c2)n(Cc2ccc(Cl)cc2)c(=O)n1CCO [Compound I-2167]
The IC50 of the first is 2.5-fold lower: 22 nM for the first, 54 nM for the second.

`Cc1ccc(Cn2c(=O)n(CCC(=O)O)c(=O)[nH]/c2=N\c2cccc(Cl)c2F)cc1` [Compound I-2054] and `CCOc1ccc2cc(/N=c3\[nH]c(=O)n(CCC(=O)O)c(=O)n3Cc3ccc(C)cc3)ccc2c1` [Compound I-2130] are within 1.5-fold of each other in IC50: 611 nM for the first, 790 nM for the second.

Going from `COC(=O)[C@@H](C)Cn1c(=O)[nH]/c(=N\c2ccc(NC(=O)C(C)C)c(Cl)c2)n(Cc2ccc(C)cc2)c1=O` [Compound I-1419] to `COC(=O)[C@@H](C)Cn1c(=O)[nH]/c(=N\c2ccc3nc(C)sc3c2)n(Cc2ccc(Cl)cc2)c1=O` [Compound I-1321], the IC50 falls from 304 nM to 7 nM (43-fold).

Going from `CCCCOc1ccc(/N=c2\[nH]c(=O)n(C[C@H](C)C(=O)O)c(=O)n2Cc2ccc(Cl)cc2)cc1` [Compound I-0819] to `CCn1c(=O)[nH]/c(=N\c2ccc(OCCN(C)C(C)=O)cc2)n(Cc2ccc(Cl)cc2)c1=O` [Compound I-2197], the IC50 rises from 22 nM to 215 nM (9.8-fold).

Going from `CC(C)Oc1ccc(/N=c2\[nH]c(=O)n(Cc3noc(=O)[nH]3)c(=O)n2Cc2ccc(Cl)cc2)cc1F` [Compound I-0601] to `CC(C)Oc1ccc(/N=c2\[nH]c(=O)n(CCc3ncn[nH]3)c(=O)n2Cc2ccc(Cl)cc2)cc1F` [Compound I-0672, 1-(4-chlorobenzyl)-6-(3-fluoro-4-isopropoxyphenylimino)-3-[2-(1,2,4-triazol-5-yl)ethyl]-1,3,5-triazinane-2,4-dion], the IC50 falls from 31 nM to 8 nM (3.9-fold). The second is the more potent here.

First: CCn1c(=O)[nH]/c(=N\c2ccc(Oc3ccnc(C(=O)OC)c3)cc2)n(Cc2ccc(Cl)cn2)c1=O [Compound I-2186]
Second: COc1ccc(Cn2c(=O)[nH]/c(=N\c3ccc(OC(C)C)c(F)c3)n(Cc3ccc(Cl)cc3)c2=O)cn1 [Compound I-0641]
The IC50 of the first is 4-fold higher: 104 nM for the first, 26 nM for the second.

Compared with `Cc1ccc2cc(/N=c3\[nH]c(=O)n([C@@H](C)[C@@H](C)C(=O)O)c(=O)n3Cc3ccc(Cl)cc3)ccc2n1` [Compound I-1350], `Cc1cc(/N=c2\[nH]c(=O)n([C@@H](C)[C@@H](C)C(=O)O)c(=O)n2Cc2ccc(Cl)cc2)ccc1OC1CCC1` [Compound I-1409] is 1.6-fold lower in IC50: 28 nM for the first, 17 nM for the second.

First: CC(C)Oc1ccc(/N=c2\[nH]c(=O)n(C[C@H](C)C(=O)O)c(=O)n2Cc2ccccc2)cc1Cl [Compound I-0794]
Second: Cc1oc2ccc(/N=c3\[nH]c(=O)n(CCCO)c(=O)n3Cc3ccc(Cl)cc3)cc2c1C [Compound I-2074]
The IC50 of the first is 24-fold higher: 168 nM for the first, 7 nM for the second.

same assay, conditions: C6BU-1 cells stably expressing human P2X3 receptor, Fluo-3 fluorescence, FDSS 3000

`CCOC(=O)CCn1c(=O)[nH]/c(=N\c2ccc(OC(CC)CC)cc2)n(Cc2ccc(C)cc2)c1=O` [Compound I-1054] and `CCCOc1ccc(/N=c2\[nH]c(=O)n(CC3(C(=O)OCC)CC3)c(=O)n2Cc2ccc(Cl)cc2)cc1` [Compound I-0919] are within 1.5-fold of each other in IC50: 18 nM for the first, 14 nM for the second.

Going from `C[C@@H](C(=O)O)[C@H](C)n1c(=O)[nH]/c(=N\c2ccc3oc(-c4ccccc4)nc3c2)n(Cc2ccc(Cl)cc2)c1=O` [Compound I-1814] to `Cc1cc(/N=c2\[nH]c(=O)n([C@H](C)[C@@H](C)C(=O)N[C@H](C)[C@@H](O)c3ccccc3)c(=O)n2Cc2ccc(Cl)cc2)ccc1OC(C)C` [Compound I-1163], the IC50 rises from 299 nM to 823 nM (2.8-fold). The first is the more potent here.

Compared with `Cc1cc(/N=c2\[nH]c(=O)n(C3CN(CC(=O)O)C3)c(=O)n2Cc2ccc(Cl)cc2)ccc1OC(C)C` [Compound I-1742], `Cc1ccc(Cn2c(=O)n(CC3(CC(=O)O)CC3)c(=O)[nH]/c2=N\c2ccc(OC(C)C)c(Cl)c2)cc1` [Compound I-0983] is 19-fold lower in IC50: 135 nM for the first, 7 nM for the second. The second is the more potent here.

Compared with `COC(=O)CC1(Cn2c(=O)[nH]/c(=N\c3ccc(OC(C)C)c(Cl)c3)n(Cc3ccc(C)cc3)c2=O)CC1` [Compound I-0979], `COC(=O)CCCCn1c(=O)[nH]/c(=N\c2ccc(OC(C)C)c(Cl)c2)n(Cc2ccc(C)cc2)c1=O` [Compound I-1873] is 3-fold lower in IC50: 6 nM for the first, 2 nM for the second. The second is the more potent here.

`COC(=O)[C@H](C)[C@H](C)n1c(=O)[nH]/c(=N\c2ccc(OC(C)C)cc2)n(Cc2ccc(C)cc2)c1=O` [Compound I-1081] and `COC(=O)[C@H](C)[C@H](C)n1c(=O)[nH]/c(=N\c2ccc(OCC3CC3)cc2)n(Cc2ccc(C)cc2)c1=O` [Compound I-0965] are within 1.5-fold of each other in IC50: 30 nM for the first, 21 nM for the second.

`Cc1nc2ccc(/N=c3\[nH]c(=O)n(CC(=O)NCCO)c(=O)n3Cc3ccc(Cl)cc3)cc2s1` [Compound I-1661] and `CC(=O)NCCn1c(=O)[nH]/c(=N\c2ccc(CC(C)C)c(Cl)c2)n(Cc2ccc(Cl)cc2)c1=O` [Compound I-1611] are within 1.5-fold of each other in IC50: 6 nM for the first, 8 nM for the second.

Compared with `C[C@@H](Cn1c(=O)[nH]/c(=N\c2ccc(C=C3CCCC3)cc2)n(Cc2ccc(Cl)cc2)c1=O)C(=O)O` [Compound I-1099], `CCCOc1ccc(/N=c2\[nH]c(=O)n(CC3(C(=O)O)CC3)c(=O)n2Cc2ccc(Cl)cc2)cc1Cl` [Compound I-0986] is 2.3-fold lower in IC50: 70 nM for the first, 31 nM for the second. The second is the more potent here.

Work on `CCn1c(=O)[nH]/c(=N\c2ccc(Oc3ccc(OC)nc3)cc2)n(Cc2ccc(Cl)cc2)c1=O` [Compound I-1847] yielded an IC50 of 6 nM.

same assay, conditions: human P2X3 receptor, Test Example 1

Going from `O=c1[nH]/c(=N\c2ccc(Oc3ncccc3F)cc2)n(Cc2ccc(Cl)cc2)c(=O)n1CC(CO)CO` [Compound I-2706] to `O=C(O)CCn1c(=O)[nH]/c(=N\c2ccc(Oc3cccc(F)n3)cc2)n(Cc2ccc(Cl)cc2)c1=O` [Compound I-2653], the IC50 rises from 6 nM to 9 nM (1.5-fold).

First: Cc1nc2ccc(/N=c3\[nH]c(=O)n(CC4COC(C)(C)OC4)c(=O)n3Cc3ccc(Cl)cc3)cc2s1 [Compound I-1542]
Second: Cc1ccc(Cn2c(=O)n(CC3(C(=O)O)CC3)c(=O)[nH]/c2=N\c2ccc3nc(C)sc3c2)cc1 [Compound I-1554]
The IC50 of the first is 3.5-fold lower: 4 nM for the first, 14 nM for the second. The first is the more potent here.

Compared with `CSc1n/c(=N\c2ccc(OC(C)C)cc2)n(Cc2ccc(Cl)cc2)c(=O)n1C(C)C` [Compound I-2301], `CC[C@H](C)n1c(=O)[nH]/c(=N\c2ccc(Oc3ccnc(C(=O)O)c3)cc2)n(Cc2ccc(Cl)cc2)c1=O` [Compound I-2480] is 73-fold lower in IC50: 437 nM for the first, 6 nM for the second.

First: Cc1cc(/N=c2\[nH]c(=O)n(CC3(C(=O)O)COC3)c(=O)n2Cc2ccc(Cl)cc2)ccc1OC(C)C [Compound I-1481]
Second: Cc1ccc(Cn2c(=O)n(CC3(C(=O)O)COC3)c(=O)[nH]/c2=N\c2ccc(OC(C)C)c(Cl)c2)cc1 [Compound I-1495]
The IC50 of the first is 1.5-fold higher: 39 nM for the first, 26 nM for the second.

`CCn1c(=O)[nH]/c(=N\c2ccc(Oc3ccc(C(=O)O)cn3)cc2)n(Cc2ccc(C)cc2)c1=O` [Compound I-2400] and `CCn1c(=O)[nH]/c(=N\c2ccc(Oc3cc(C(=O)O)ccn3)cc2)n(Cc2ccc(Cl)cc2)c1=O` [Compound I-2250] are within 1.5-fold of each other in IC50: 6 nM for the first, 8 nM for the second.

First: COC(=O)CCn1c(=O)[nH]/c(=N\c2ccc(Oc3cccc(C(N)=O)n3)cc2)n(Cc2ccc(C)cc2)c1=O [Compound I-2682]
Second: CCn1c(=O)[nH]/c(=N\c2ccc(Oc3cccc(C(N)=O)n3)cc2)n(Cc2ccc(F)cc2)c1=O [Compound I-2495]
The IC50 of the first is 10-fold lower: 2 nM for the first, 21 nM for the second. The first is the more potent here.

Compared with `CCOC(=O)CCn1c(=O)[nH]/c(=N\c2ccc(OC(C)C)c(Cl)c2)n(Cc2ccc(C)cc2)c1=O` [Compound I-0866, 6-(3-chloro-4-isopropoxyphenylamino)-3-(2,3-ethoxycarbonylethyl)-1-(4-methylbenzyl)-1,3,5-triazinane-2,4-dion], `CCCOc1ccc(/N=c2\[nH]c(=O)n(C[C@H](C)C(=O)OC)c(=O)n2Cc2ccc(C)cc2)cc1Cl` [Compound I-0839] is 6-fold higher in IC50: 2 nM for the first, 12 nM for the second.

`COC(=O)CCn1c(=O)[nH]/c(=N\c2ccc(Oc3ncccn3)cc2)n(Cc2ccc(C)cc2)c1=O` [Compound I-2551] and `CCn1c(=O)[nH]/c(=N\c2ccc(Oc3ccnnc3)cc2)n(Cc2ccc(C)cc2)c1=O` [Compound I-2599] are the same in IC50: 4 nM for the first, 4 nM for the second.

First: Cc1ccc(Cn2c(=O)n(C[C@H](C)C(=O)O)c(=O)[nH]/c2=N\c2ccc(CC(C)(C)F)c(Cl)c2)cc1 [Compound I-1531]
Second: COC(=O)[C@@H](C)Cn1c(=O)[nH]/c(=N\c2ccc(CC(C)(C)O)c(Cl)c2)n(Cc2ccc(C)cc2)c1=O [Compound I-1527]
The IC50 of the first is 5-fold higher: 25 nM for the first, 5 nM for the second. The second is the more potent here.

`O=C(O)c1cncc(Oc2ccc(/N=c3\[nH]c(=O)n(C4CC4)c(=O)n3Cc3ccc(Cl)cc3)cc2)c1` [Compound I-2331] and `O=c1[nH]/c(=N\c2ccc(Oc3cncc(F)c3)cc2)n(Cc2ccc(Cl)cc2)c(=O)n1CCO` [Compound I-2420] are within 1.5-fold of each other in IC50: 7 nM for the first, 9 nM for the second.

Compared with `CCn1c(=O)[nH]/c(=N\c2ccc(Oc3cccc(C(=O)O)n3)cc2)n(Cc2ncc(Cl)cn2)c1=O` [Compound I-2553], `CCn1c(=O)[nH]/c(=N\c2ccc(Oc3cccc(C(=O)O)n3)c(OC)c2)n(Cc2ccc(Cl)cc2)c1=O` [Compound I-2423] is 31-fold lower in IC50: 216 nM for the first, 7 nM for the second.

`Cc1nsc(Oc2ccc(/N=c3\[nH]c(=O)n(C[C@@H](O)CO)c(=O)n3Cc3ccc(Cl)cc3)cc2)n1` [Compound I-2577] and `O=c1[nH]/c(=N\c2ccc(Oc3cnsn3)cc2)n(Cc2ccc(Cl)cc2)c(=O)n1C[C@H](O)CO` [Compound I-2479] are the same in IC50: 8 nM for the first, 8 nM for the second.

Compared with `O=c1[nH]c(=O)n(Cc2ccc(Cl)cc2)/c(=N/c2ccc(Oc3cccc(F)n3)cc2)[nH]1` [Compound I-2503], `CCn1c(=O)[nH]/c(=N\c2ccc(Oc3ccnnc3)cc2)n(Cc2ccc(Cl)cc2)c1=O` [Compound I-2600] is 9.8-fold lower in IC50: 39 nM for the first, 4 nM for the second.

Going from `O=C(O)CCn1c(=O)[nH]/c(=N\c2ccc(Oc3ccon3)cc2)n(Cc2ccc(Cl)cc2)c1=O` [Compound I-2435] to `O=c1[nH]/c(=N\c2ccc(Oc3nccs3)cc2)n(Cc2ccc(Cl)cc2)c(=O)n1CCO` [Compound I-2505], the IC50 falls from 37 nM to 17 nM (2.2-fold).
